Test [1] concerns ClpP substrate protein levels in mouse MEF cells. Put plainly: Western blot analysis of ClpP substrates in MEF cells treated with ClpP inhibitors. Format: cell-based. The note with it: 10 μM in OPTI-MEM twice a day for 2 days (48 hr); wild type mouse MEF cells; western blot (FIGS. 24 and 25). The protocol: (§1) Western blot. Tissues or cells were lysated in low-detergent buffer (50 mM Tris/HCl, pH 8.0, 150 mM NaCl, 0.1% SDS, 0.5% Nonidet P-40, 0.5% sodium deoxycholate) with a mixture of protease inhibitors. Phosphatase inhibitors were also included in the lysate buffer. The lysates were centrifuged at 13,000 rpm for 10 min to remove the pellets. SDS-PAGE was performed with a NuPAGE bis-tris system from Invitrogen, following the vendor's protocol. A standard western blot protocol was used with IRDye-labeled secondary antibodies (Li-cor). A Li-cor image system was used to scan the western blot images.
(§2) Wild type mouse MEF cells were seeded at 200,000 cells per well at 6 well plates the day before treatment. Cells were treated with the small molecule ClpP inhibitors A2-32-01, AV167, and AV179 (described previously herein) at 10 μM in OPTI-MEM twice a day for 2 days (48 hr). For each treatment, the old medium will be removed and fresh medium added to the wells. After 48 hr treatment, the cells were harvested for western blot analysis or qPCR assay of ClpP substrates.

In test [2] the test system is mRNA level of these genes in mouse MEF cells. The experiment in a line: qPCR assay of ClpP substrates in MEF cells treated with ClpP inhibitor. Format: cell-based. The conditions noted are these: 10 μM twice a day for 2 days (48 hr), qPCR (FIG. 26). The method, then:
as §2

Test [3] concerns high fat diet (HFD)-induced obesity and diabetes mouse models. Put plainly: In vivo treatment in high fat diet (HFD)-induced obesity and diabetes mouse model. An excerpt:
Animals. All mice were maintained on a 12-h light/dark cycle in a pathogen-free animal facility. Mice were separately housed by their genotypes for all metabolic studies. For high-fat diet (HFD)-induced obesity studies, animals were fed a HFD (21% by weight, 42% kcal from fat, 0.2% total cholesterol; TD.01064, Harlan-Teklad) for specified periods. Anesthesia was induced with isoflurane (survival procedures) or with avertin (terminal procedures). All procedures were approved by the UCSF Animal Research Committee and followed NIH guidelines. Animal sample sizes for different assays were chosen based on previous literature. Animals were grouped according to genotype; no randomization was used. For all behavior tests, all animal IDs were blinded to tester. Testers were not blinded for other assays.
(§3) Measurement of blood glucose and plasma insulin. Blood glucose was measured with a glucometer and glucose test strips (Free Style Lite). Plasma insulin was quantified with an insulin Elisa kit (Crystal Chem).
(§4) Glucose, insulin, and pyruvate tolerance tests. Glucose, insulin, and pyruvate tolerance tests were performed by intraperitoneal injection of glucose (2 g/kg), insulin (0.5 units/kg) or pyruvate (2 g/kg) after an overnight fast for glucose and pyruvate or a 4-h fast for insulin. Blood glucose levels were measured before injection and at different time points after injection. To assess glucose-stimulated insulin release, mice fasted overnight (for 16 h) and were then injected intraperitoneally with glucose (2 g/kg). Blood samples were collected from tail veins before injection and at different time points after injection.
(§5) Histological analysis. Tissues (liver, visceral adipose, gastrocnemius muscle, interscapular brown adipose, and pancreas) were fixed in 4% paraformaldehyde (pH 7.4) overnight, embedded in paraffin, and serially sectioned at 7-8 μm. Standard haematoxylin and eosin staining was performed.
7-9 month old WT female (20 mice), were fed with high fat diet for 3 weeks. Body weight change and blood glucose/plasma insulin levels in response to HFD were measured. At the beginning of the 4th week, for treatment group, A2-32-01 was injected peritoneally twice daily at 300 mg/kg for 8 days. For the control group, corn oil (vehicle) was injected. The mice were maintained on HFD. The body weight change was followed every day. At the 8th day of A2-32-01 injection, blood glucose levels were measured, and a glucose tolerance test was applied to measure insulin sensitivity.
(§6) The in-vivo analysis described in Examples 9 and 10 was continued in accordance with the experimental protocol shown in FIG. 30.

The target of test [4] is T1, ClpP (Mus musculus, UniProt O88696).
T1 construct: ClpP activity was lower in liver mitochondrion lysates from A2-32-01-treated mice compared to those from vehicle-treated mice; from tissue; host or cells: liver mitochondria of HFD-fed wild-type mice dosed in vivo with A2-32-01
The experiment in a line: ClpP activity in liver mitochondrion lysates from treated HFD-fed mice. The class given is in vivo. The note with it: HFD-fed WT mice; vs vehicle-treated (FIG. 32 left panel). The protocol:
(§7) The in-vivo analysis of Example 9 is continued, with collection of the blood and multiple organs (liver/muscle/brain) at day 9 of A2-32-01 injection. Mitochondria are isolated from mouse liver and ClpP activity is tested using peptide substrates, e.g., as described herein. Western blot analysis is performed to detect ClpP substrate levels.
as §6

The subject of test [5] is tentative ClpP effectors (Trap1, ClpX, LRPPRC, LonP, and OAT). Put plainly: Western blot of tentative ClpP effectors in liver mitochondrion lysates from treated HFD-fed mice. Format: in vivo, mouse. The conditions noted are these: HFD-fed WT mice, vs vehicle-treated (FIG. 32 right panel). The protocol:
as §1, §7, §6
Background: In western blotting, separated proteins are transferred to a membrane and probed.

The subject of test [6] is db/db mice (a model of obesity, diabetes, and dyslipidemia). The experiment in a line: In vivo treatment of db/db mice. Details: species or system mouse. The method, then: as §3, §4, §5
Test [7] has as its target T1, ClpP. Put plainly: ClpP activity in liver mitochondria lysates from treated db/db mice. The conditions noted are these: vs vehicle (FIG. 35 panel E). The class given is in vivo.
Setting [8] is: WT mice on HFD, H&E and oil red staining, vs vehicle (FIG. 33).
The mark [9] stands for this setting: H&E and oil red staining, vs vehicle (FIG. 36).

Structures are written as SMILES.

T1 sequence (O88696 53-272): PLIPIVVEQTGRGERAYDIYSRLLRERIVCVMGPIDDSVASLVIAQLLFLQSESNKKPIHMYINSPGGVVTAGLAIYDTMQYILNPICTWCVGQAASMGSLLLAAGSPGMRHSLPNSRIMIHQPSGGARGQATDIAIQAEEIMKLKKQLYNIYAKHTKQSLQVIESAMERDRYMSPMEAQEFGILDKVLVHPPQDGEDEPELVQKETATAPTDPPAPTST

For `C=CCCCCCCC[C@H]1C(=O)O[C@@H]1CCc1cccnc1` (racemic) [A2-32-01, (3RS,4RS)-3-(non-8-en-1-yl)-4-(2-(pyridin-3-yl)ethyl)oxetan-2-one], the “ClpP substrate protein levels” value in test [1] is “increased”. Moreover, the “mRNA level of ClpP substrate genes” value in test [2] is reported as “remained unchanged”. The body weight result is listed as “significant decrease” in test [3] (300 mg/kg peritoneally twice daily, day 2 through day 7, HFD-fed WT female mice, vs vehicle control (FIG. 28)); “significantly decreased” in test [3] (Example 11, mice on HFD, vs vehicle-treated (FIG. 31 left panel)); “significantly decreased” in test [6] (at the end of the treatment, vs vehicle (FIG. 34 panel B)). Further, the “insulin sensitivity (glucose tolerance test)” value in test [3] (300 mg/kg peritoneally twice daily, day 8, HFD-fed WT mice, vs vehicle control (FIG. 29)) was “significant improvement”. Further, the “insulin sensitivity (glucose tolerance tests)” value is recorded as “increased” in test [3] (Example 11, HFD-fed WT mice, vs vehicle (FIG. 31 right panel)) and “increased” in test [6] (vs vehicle (FIG. 35 panel C)). Moreover, the “lipid accumulation in liver cells” value in test [3] (setting [8]) and in test [6] (setting [9]) was “lowered” throughout. Moreover, the “morphology of liver cells” value in test [3] (setting [8]) and in test [6] (setting [9]) was “restored normal morphology” in each case. In addition, the “ClpP activity in liver mitochondrion lysates” value on ClpP [4] is recorded as “lower”. In test [5], the “levels of tentative ClpP effectors (Trap1, ClpX, LRPPRC, LonP, and OAT) in liver mitochondrion lysates” value is listed as “higher”. Besides, the “fasting blood glucose levels” value in test [6] (vs vehicle (FIG. 35 panel D)) is on record as “significantly lower”. Moreover, the “ClpP activity in liver mitochondria lysates” value at ClpP [7] is listed as “lower”.

The record behind these values is patent US11376242B2, “Methods and compositions for treating obesity and/or diabetes and for identifying candidate treatment agents” (The J. David Gladstone Institutes, a testamentary trust …, priority 2016, dated 2022).
